According to US20230263758A1, “COMPOSITIONS OF EDTA HAVING ACTIVITY AGAINST PLANKTONIC AND BIOFILM CELLS OF CLINICALLY RELEVANT PATHOGENS” (SterileCare Inc., priority 2022, published 2023):
Structures can show the parent of a compound that is named as a salt.

Columns and labels:
[1] = system: Stenotrophomonas maltophilia ON17; test: Checkerboard titration, FICI; type: cell-based; conditions: S. maltophilia ON17
Description: (§1) A fourth composition and solution included tetrasodium EDTA with ethanol or chlorhexidine HCl. This fourth composition and solution were created using checkerboard titration methods using micro broth dilution in 96-well microtiter plates. The concentrations of antimicrobials used were based on previously determined MIC values. Briefly, 200 μL of two-fold dilutions of tetrasodium EDTA and ethanol or chlorhexidine HCl were prepared in MH or MH II broth with standardized cell suspension. […] Microtiter plates were incubated at 37° C. for 24 h, and the results were analyzed. Each test was performed in duplicate and included a growth control without adding any antimicrobials.

[2] = system: Candida albicans SK4b; test: Checkerboard titration, FICI; type: cell-based; conditions: C. albicans SK4b
Description: as §1

[3] = system: Staphylococcus aureus ON89; test: Checkerboard titration, FICI; type: cell-based; conditions: S. aureus ON89
Description: as §1

[4] = system: Pseudomonas aeruginosa SK1; test: Checkerboard titration, FICI; type: cell-based; conditions: P. aeruginosa SK1
Description: as §1

[5] = system: Escherichia coli ON29; test: Checkerboard titration, FICI; type: cell-based; conditions: E. coli ON29
Description: as §1

[6] = system: Serratia marcescens SK2; test: Checkerboard titration, FICI; type: cell-based; conditions: S. marcescens SK2
Description: as §1

[7] = system: Staphylococcus epidermidis ON170; test: Checkerboard titration, FICI; type: cell-based; conditions: S. epidermidis ON170
Description: as §1

[8] = system: Proteus mirabilis ON153; test: Checkerboard titration, FICI; type: cell-based; conditions: P. mirabilis ON153
Description: as §1

[9] = system: E. coli SK2; test: Checkerboard titration, FICI; type: cell-based, Escherichia coli
Description: as §1

[10] = system: S. epidermidis SK9; test: Checkerboard, FMCI; type: cell-based, Staphylococcus epidermidis; conditions: EDTA + chlorhexidine HCl
Description: (§2) An assay was made using a minimum inhibitory concentration (MIC) and minimum bactericidal concentration (MBC) and minimum fungicidal concentration (MFC) determination. The MIC was determined by the micro broth dilution method in 96-well plates. Serial two-fold dilutions of tetrasodium EDTA (from 2% to 0.015%), ethanol (from 50% to 0.1%) and chlorhexidine HCl (from 100 μg/mL to 0.025 μg/mL) were prepared in MH broth with a final volume of 90 μL per well. A 10 μL containing 1×10^5 bacterial cells or 2×10^3 fungal cells were added to each well. The inoculated plates were covered with a lid, sealed with Parafilm, and incubated for 24 h at 37° C. with slight rocking on a tilting platform shaker. After incubation, the optical density at 600 nm (OD 600) of the cultures in each well was measured using an xMark™ Microplate Absorbance Spectrophotometer (Bio-Rad). […] MBCs and MFCs were determined by transferring 100 μL from each well with no apparent growth onto appropriate agar plates, followed by incubation for 24 h at 37° C.
(§3) A fourth composition and solution included tetrasodium EDTA with ethanol or chlorhexidine HCl. […] The concentrations of antimicrobials used were based on previously determined MIC values. […] Microtiter plates were incubated at 37° C. for 24 h, and the results were analyzed. […]

[11] = system: Pseudomonas aeruginosa SK1; test: Checkerboard FBEC index, 48-h biofilm; type: cell-based; conditions: P. aeruginosa SK1 biofilm; EDTA + chlorhexidine HCl
[12] = system: C. albicans ON47; test: Checkerboard titration, FICI; type: cell-based, Candida albicans
Description: as §1

[13] = system: Staphylococcus aureus ON89; test: Checkerboard FBEC index, 48-h biofilm; type: cell-based; conditions: S. aureus ON89 biofilm
[14] = system: Candida albicans SK4b; test: Checkerboard, FMCI; type: cell-based; conditions: C. albicans SK4b
Description: as §2, §1

[15] = system: Escherichia coli ON29; test: Checkerboard, FMCI; type: cell-based; conditions: E. coli ON29
Description: as §2, §1

[16] = system: Escherichia coli SK2; test: Checkerboard FBEC index, 48-h biofilm; type: cell-based; conditions: E. coli SK2 biofilm; EDTA + chlorhexidine HCl
[17] = system: 48-h-old biofilms of bacterial and fungal strains; test: MBEC assay, summary, 24 h exposure of 48-h-old biofilms; type: cell-based
Description: A biofilm cultivation cell composition was provided. This fifth composition was created using an MBEC Assay® biofilm inoculator, consisting of a polystyrene lid with 96 downward-protruding pegs and a corresponding base used to grow biofilms. A standardized inoculum was diluted in an appropriate biofilm growth medium to achieve a viable cell count of 1.5×10^6 CFU/mL of bacterial cells or 5×10^5 CFU/mL of fungal cells. Then, 150 μL of this inoculum was transferred into each appropriate well, and the peg lids were inserted into the microtiter plates. The plates were sealed with Parafilm and were incubated at optimum temperature for 48 h with slight rocking for bacteria and shaking at 200 rpm for fungal strains. After incubation, the peg lid was removed from the base and rinsed twice with sterile phosphate-buffered saline (PBS) for 2 min to remove loosely attached non-sessile cells. Before the antimicrobial challenge, the pegs in column 1 (n=8) were considered the biofilm growth control; these pegs were removed from the lids, placed into 200 μL of recovery medium, and analyzed for starting biofilm cell numbers as described below. […] After the antimicrobial challenge, the pegs were rinsed twice with sterile PBS for 2 min and placed into a new 96-well plate containing 200 μL of recovery medium. The recovery plates were sealed with Parafilm, and biofilm cells were dislodged from the pegs by sonication for 30 min with a Branson 3510 bath sonicator. The biofilm cells in the recovery medium were serially diluted, and a drop dilution assay was performed to enumerate the viable cells. MBEC values were determined as the minimum concentration of antimicrobials that yielded a viable cell count at or lower than the 125 CFU/mL detection limit.

[18] = system: C. albicans ON47; test: Checkerboard, FMCI; type: cell-based, Candida albicans; conditions: EDTA + chlorhexidine HCl
Description: as §2, §3

[19] = system: S. epidermidis SK9; test: Checkerboard titration, FICI; type: cell-based, Staphylococcus epidermidis
Description: as §1

[20] = system: Staphylococcus epidermidis SK9; test: Checkerboard FBEC index, 48-h biofilm; type: cell-based; conditions: S. epidermidis SK9 biofilm
[21] = system: MRSA ON184; test: Checkerboard titration, FICI; type: cell-based, Staphylococcus aureus
Description: as §1

[22] = EDTA + chlorhexidine HCl checkerboard

`[H]/N=C(\N/C(=N/[H])NCCCCCCNC(=N)NC(=N)Nc1ccc(Cl)cc1)Nc1ccc(Cl)cc1` [Chlorhexidine HCl, chlorhexidine HCl, reference compound] was tested, and the “Inhibitory concentration in combination” value [1, 22] was 0.2 µg/mL, the “Inhibitory concentration in combination” value [2, 22] was 0.8 µg/mL and the “Inhibitory concentration in combination” value [3, 22] was 0.1 µg/mL. The “Inhibitory concentration in combination” value [4, 22] was 0.8 µg/mL, the “Inhibitory concentration in combination” value [5, 22] was 0.2 µg/mL and the “Inhibitory concentration in combination” value [6, 22] was 1.5 µg/mL. The “Inhibitory concentration in combination” value [7, 22] was 0.05 µg/mL, the “Inhibitory concentration in combination” value [8, 22] was 0.8 µg/mL and the “Inhibitory concentration in combination” value [9, 22] was 0.1 µg/mL. The “Microbicidal concentration in combination” value (shortened to “Microbicidal concentration”) [10] was 0.4 µg/mL, the “Biofilm eradication concentration in combination (FBEC)” value (from here on “Biofilm eradication concentration”) [11] was 3.125 µg/mL and the “Inhibitory concentration in combination” value [12, 22] was 0.8 µg/mL. For the same compound, the “Biofilm eradication concentration” value ([13]; EDTA + chlorhexidine HCl) was 3.125 µg/mL, the “Microbicidal concentration” value ([14]; EDTA + chlorhexidine HCl) was 0.8 µg/mL and the “Microbicidal concentration” value ([15]; EDTA + chlorhexidine HCl) was 0.2 µg/mL. For the same compound, the “Biofilm eradication concentration” value [16] was 3.125 µg/mL, the “Concentration alone able to eradicate all established biofilms following 24 h of treatment” value [17] was 100 µg/mL and the “Microbicidal concentration” value [18] was 1.6 µg/mL. The “Inhibitory concentration in combination” value [19, 22] was 0.025 µg/mL, the “Biofilm eradication concentration” value ([20]; EDTA + chlorhexidine HCl) was 3.125 µg/mL and the “Inhibitory concentration in combination” value [21, 22] was 0.2 µg/mL.

In the case of `O=C([O-])CN(CCN(CC(=O)[O-])CC(=O)[O-])CC(=O)[O-].[Na+].[Na+].[Na+].[Na+]` [EDTA, tetrasodium EDTA], the “Inhibitory concentration in combination” value [1, 22] is reported as 0.015 % w/v, the “Inhibitory concentration in combination” value ([1]; EDTA + ethanol checkerboard) is reported as 0.031 % w/v and the “Inhibitory concentration in combination” value [2, 22] is reported as 0.063 % w/v. The “Inhibitory concentration in combination” value ([2]; EDTA + ethanol checkerboard) was 0.25 % w/v, the “Inhibitory concentration in combination” value [3, 22] was 0.008 % w/v and the “Inhibitory concentration in combination” value ([3]; EDTA + ethanol checkerboard) was 0.015 % w/v. For the same compound, the “Inhibitory concentration in combination” value [4, 22] was 0.5 % w/v, the “Inhibitory concentration in combination” value ([4]; EDTA + ethanol checkerboard) was 0.031 % w/v and the “Inhibitory concentration in combination” value [5, 22] was 0.008 % w/v. For the same compound, the “Inhibitory concentration in combination” value ([5]; EDTA + ethanol checkerboard) was 0.25 % w/v, the “Inhibitory concentration in combination” value [6, 22] was 0.063 % w/v and the “Inhibitory concentration in combination” value ([6]; EDTA + ethanol checkerboard) was 0.5 % w/v. For the same compound, the “Inhibitory concentration in combination” value [7, 22] was 0.063 % w/v, the “Inhibitory concentration in combination” value ([7]; EDTA + ethanol checkerboard) was 0.015 % w/v and the “Inhibitory concentration in combination” value [8, 22] was 0.063 % w/v. For the same compound, the “Inhibitory concentration in combination” value ([8]; EDTA + ethanol checkerboard) was 0.5 % w/v, the “Inhibitory concentration in combination” value [9, 22] was 0.008 % w/v and the “Inhibitory concentration in combination” value ([9]; EDTA + ethanol checkerboard) was 0.015 % w/v. The “Microbicidal concentration” value [10] was 0.008 % w/v, the “Biofilm eradication concentration” value [11] was 0.25 % w/v and the “Inhibitory concentration in combination” value [12, 22] was 0.125 % w/v. The “Inhibitory concentration in combination” value ([12]; EDTA + ethanol checkerboard) was 0.25 % w/v, the “Biofilm eradication concentration” value ([13]; EDTA + ethanol) was 0.063 % w/v and the “Microbicidal concentration” value ([14]; EDTA + ethanol) was 0.25 % w/v. For the same compound, the “Microbicidal concentration” value ([15]; EDTA + chlorhexidine HCl) was 0.008 % w/v, the “Microbicidal concentration” value ([15]; EDTA + ethanol) was 0.25 % w/v and the “Biofilm eradication concentration” value [16] was 0.031 % w/v. The “Concentration alone able to eradicate all established biofilms following 24 h of treatment” value [17] was 4%, the “Microbicidal concentration” value [18] was 0.031 % w/v and the “Inhibitory concentration in combination” value [19, 22] was 0.015 % w/v. For the same compound, the “Inhibitory concentration in combination” value ([19]; EDTA + ethanol checkerboard) was 0.015 % w/v, the “Biofilm eradication concentration” value ([20]; EDTA + ethanol) was 0.031 % w/v and the “Inhibitory concentration in combination” value [21, 22] was 0.008 % w/v. For the same compound, the “Inhibitory concentration in combination” value ([21]; EDTA + ethanol checkerboard) was 0.015 % w/v.
